Experimental findings from ChEMBL document CHEMBL2074341, “Biliary excretion of flavopiridol and its glucuronides in the isolated perfused rat liver: role of multidrug resistance protein 2 (Mrp2)” (Life Sci, 2003) are described below.

For the data set, the target named is ATP-binding cassette sub-family C member 2 (Rattus norvegicus, UniProt Q63120). As to the kind of experiment: TP_TRANSPORTER: transport activity, in vitro, Wistar vs TR-. The data set is classed as functional.
Chain of ATP-binding cassette sub-family C member 2 (Q63120 whole entry): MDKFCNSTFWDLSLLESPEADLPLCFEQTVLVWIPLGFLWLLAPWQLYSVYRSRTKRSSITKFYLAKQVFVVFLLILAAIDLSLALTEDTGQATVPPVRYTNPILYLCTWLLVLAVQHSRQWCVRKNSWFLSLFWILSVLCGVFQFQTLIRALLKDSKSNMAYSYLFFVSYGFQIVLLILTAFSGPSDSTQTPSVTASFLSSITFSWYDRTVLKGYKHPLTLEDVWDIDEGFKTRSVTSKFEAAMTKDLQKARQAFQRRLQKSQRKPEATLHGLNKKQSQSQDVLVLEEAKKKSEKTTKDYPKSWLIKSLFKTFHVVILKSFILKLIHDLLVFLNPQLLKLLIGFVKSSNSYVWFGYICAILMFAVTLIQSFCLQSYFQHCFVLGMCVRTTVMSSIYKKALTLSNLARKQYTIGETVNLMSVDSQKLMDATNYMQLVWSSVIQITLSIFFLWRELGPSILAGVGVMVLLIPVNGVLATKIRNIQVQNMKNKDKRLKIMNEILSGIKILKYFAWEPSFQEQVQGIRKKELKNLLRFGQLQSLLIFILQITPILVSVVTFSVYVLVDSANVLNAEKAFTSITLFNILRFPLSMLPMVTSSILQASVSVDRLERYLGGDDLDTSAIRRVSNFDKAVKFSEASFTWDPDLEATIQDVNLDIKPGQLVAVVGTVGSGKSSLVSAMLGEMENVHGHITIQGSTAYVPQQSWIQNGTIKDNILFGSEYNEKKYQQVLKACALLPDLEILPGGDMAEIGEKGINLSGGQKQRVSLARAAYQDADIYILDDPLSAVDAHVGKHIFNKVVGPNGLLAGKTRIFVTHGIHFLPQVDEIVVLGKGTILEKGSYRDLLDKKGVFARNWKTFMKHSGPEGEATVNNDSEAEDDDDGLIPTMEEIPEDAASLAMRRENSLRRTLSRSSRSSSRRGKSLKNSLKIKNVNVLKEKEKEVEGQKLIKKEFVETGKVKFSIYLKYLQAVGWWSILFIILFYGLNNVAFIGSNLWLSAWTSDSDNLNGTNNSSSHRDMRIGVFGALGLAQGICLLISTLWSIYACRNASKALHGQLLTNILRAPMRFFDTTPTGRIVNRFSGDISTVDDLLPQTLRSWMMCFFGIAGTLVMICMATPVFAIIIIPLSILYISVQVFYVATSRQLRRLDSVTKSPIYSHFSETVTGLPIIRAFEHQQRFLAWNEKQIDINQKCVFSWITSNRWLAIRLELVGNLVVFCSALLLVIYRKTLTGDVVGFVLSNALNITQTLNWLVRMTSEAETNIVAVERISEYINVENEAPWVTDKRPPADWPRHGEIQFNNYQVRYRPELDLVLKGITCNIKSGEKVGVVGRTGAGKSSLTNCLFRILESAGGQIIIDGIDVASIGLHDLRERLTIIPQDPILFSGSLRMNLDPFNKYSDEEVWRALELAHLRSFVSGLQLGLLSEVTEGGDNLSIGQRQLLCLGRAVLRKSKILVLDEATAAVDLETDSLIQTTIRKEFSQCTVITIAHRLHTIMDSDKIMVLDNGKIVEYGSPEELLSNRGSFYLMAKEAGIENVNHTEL

Consider `CN1CC[C@H](c2c(O[C@@H]3O[C@H](C(=O)O)[C@@H](O)[C@H](O)[C@H]3O)cc(O)c3c(=O)cc(-c4ccccc4Cl)oc23)[C@H](O)C1`, for which the Activity entry is “substrate []”.

Regarding `CN1CC[C@H](c2c(O)cc(O[C@@H]3O[C@H](C(=O)O)[C@@H](O)[C@H](O)[C@H]3O)c3c(=O)cc(-c4ccccc4Cl)oc23)[C@H](O)C1`, the Activity result was “substrate []”.
